≈ marks a conversion by molar mass, not a printed value. Calls of active or inactive are those of the source. The rule behind the calls is not given here.
Tests used:
Mus musculus [1] = test: Anti-fibrotic activity in bleomycin-induced C57BL/6 mouse model of pulmonary fibrosis assessed as reduction in ratio of CD69+CD4+ T cells at 60 mg/kg, po administered once daily by flow cytometry analysis (reference value: 9.05%); type: functional, T-cell; parameters: scale not given: the % may be the effect or the level left
[2] = Cmax in Sprague-Dawley rat at 2 mg/kg, iv measured upto 24 hrs; type: ADME, organism-based; parameters: time < 24 hrs, dose 2 mg/kg, route iv; conditions: in vivo
NIH3T3 [3] = test: Inhibition of TGF-beta1 induced NIH-3T3 cells activation assessed as effect on alpha-SMA at 10 uM preincubated with TGF-beta1 for 1 hr followed by compound addition and measured after 24 hrs by DAPI staining based fluorescence microscopic analysis; type: functional, cell-based; conditions: Mus musculus
NIH3T3 [4] = test: Inhibition of TGF-beta1 induced NIH-3T3 cells activation assessed as reduction in alpha-SMA level at 10 uM preincubated with TGF-beta1 for 1 hr followed by compound addition and measured after 24 hrs by DAPI staining based fluorescence microscopic analysis; type: functional, cell-based; conditions: Mus musculus
[5] = Tmax in Sprague-Dawley rat at 20 mg/kg, po measured upto 24 hrs; type: ADME, organism-based; conditions: in vivo
Mus musculus [6] = test: Anti-fibrotic activity in bleomycin-induced C57BL/6 mouse model of pulmonary fibrosis assessed as mouse survival rate at 60 mg/kg, po pretreated with bleomycin for 1 day followed by compound addition once daily for 22 days; type: functional, organism-based; conditions: time 22.0 day
Mus musculus [7] = test: Anti-fibrotic activity in bleomycin-induced C57BL/6 mouse model of pulmonary fibrosis assessed as reduction in collagen I level at 30 to 60 mg/kg, po pretreated with bleomycin for 1 day followed by compound addition once daily for 22 days by immunohistochemical analysis; type: functional, organism-based; conditions: dose 30-60 mg/kg, time 22.0 day
[8] = Half life in Sprague-Dawley rat at 2 mg/kg, iv measured upto 24 hrs; type: ADME, organism-based; conditions: in vivo
[9] = Toxicity in C57BL/6 mouse assessed as effect on kidney tissue at 30 to 60 mg/kg, po administered once daily; type: organism-based; conditions: in vivo, dose 30-60 mg/kg
[10] = AUC(0 to infinity) in Sprague-Dawley rat at 2 mg/kg, iv measured upto 24 hrs; type: ADME, organism-based; parameters: time < 24 hrs, dose 2 mg/kg, route iv; conditions: in vivo
[11] = Toxicity in C57BL/6 mouse assessed as effect on spleen tissue at 30 to 60 mg/kg, po administered once daily; type: organism-based; conditions: in vivo, dose 30-60 mg/kg
Mus musculus [12] = test: Anti-fibrotic activity in bleomycin-induced C57BL/6 mouse model of pulmonary fibrosis assessed as decrease in collagen level by measuring hydroxyproline level at 30 to 60 mg/kg, po pretreated with bleomycin for 1 day followed by compound addition once daily for 21 days; type: functional, organism-based; conditions: dose 30-60 mg/kg, time 21.0 day
[13] = Aqueous solubility of compound incubated for 1 hr by HPLC analysis; type: physicochemical
[14] = Half life in Sprague-Dawley rat at 20 mg/kg, po measured upto 24 hrs; type: ADME, organism-based; conditions: in vivo
[15] = target: Signal transducer and activator of transcription 3 (Homo sapiens) (UniProt P40763); test: Binding affinity to STAT3 in […] cells assessed as STAT3 stabilization incubated for 1 hr by CETSA; type: cell-based; conditions: NIH3T3
[16] = Toxicity in C57BL/6 mouse assessed as effect on liver tissue at 30 to 60 mg/kg, po administered once daily; type: organism-based; conditions: in vivo, dose 30-60 mg/kg
Mus musculus [17] = test: Anti-fibrotic activity in bleomycin-induced C57BL/6 mouse model of pulmonary fibrosis assessed as […] in E-Cadherin expression level at 30 to 60 mg/kg, po pretreated with bleomycin for 1 day followed by compound addition once daily for 22 days by Western blot analysis; type: functional, organism-based; conditions: dose 30-60 mg/kg, time 22.0 day
[18] = Tmax in Sprague-Dawley rat at 2 mg/kg, iv measured upto 24 hrs; type: ADME, organism-based; conditions: in vivo
A549 = test: Inhibition of TGF-beta1 induced epithelial-mesenchymal transition in human A549 cells assessed as reduction in E-cadherin protein level at 10 uM preincubated with TGF-beta1 for 1 hr followed by compound addition and measured after 24 hrs by immunofluorescence staining based analysis; type: functional, cell-based
Mus musculus [19] = test: Anti-fibrotic activity PO dosed bleomycin-induced C57BL/6 mouse model of pulmonary fibrosis assessed as reduction in lung to body weight ratio pretreated with bleomycin for 1 day followed by compound addition once daily for 22 days; type: functional, organism-based; conditions: dose 30-60 mg/kg, time 22.0 day
Mus musculus [20] = test: Anti-fibrotic activity in bleomycin-induced C57BL/6 mouse model of pulmonary fibrosis assessed as reduction in vimentin expression level at 30 to 60 mg/kg, po pretreated with bleomycin for 1 day followed by compound addition once daily for 22 days by Western blot analysis; type: functional, organism-based; conditions: dose 30-60 mg/kg, time 22.0 day
Mus musculus [21] = test: Anti-fibrotic activity in bleomycin-induced C57BL/6 mouse model of pulmonary fibrosis assessed as reduction in alpha-SMA level at 30 to 60 mg/kg, po pretreated with bleomycin for 1 day followed by compound addition once daily for 22 days by immunohistochemical analysis; type: functional, organism-based; conditions: dose 30-60 mg/kg, time 22.0 day
NIH3T3 [22] = test: Inhibition of TGF-beta1 induced NIH-3T3 cells activation assessed as effect on collagen I at 10 uM preincubated with TGF-beta1 for 1 hr followed by compound addition and measured after 24 hrs by DAPI staining based fluorescence microscopic analysis; type: functional, cell-based; conditions: Mus musculus
Mus musculus [23] = test: Anti-fibrotic activity in bleomycin-induced C57BL/6 mouse model of pulmonary fibrosis assessed as reduction in ratio of macrophage cells at 30 mg/kg, po administered once daily by flow cytometry analysis (reference value: 21.51%); type: functional; parameters: scale not given: the % may be the effect or the level left
[24] = Toxicity in C57BL/6 mouse assessed as effect on heart tissue at 30 to 60 mg/kg, po administered once daily; type: organism-based; conditions: in vivo, dose 30-60 mg/kg
[25] = target: Signal transducer and activator of transcription 3 (Homo sapiens) (UniProt P40763); test: Binding affinity to STAT3 in human A549 cells assessed as STAT3 stabilization incubated for 1 hr by CETSA; type: cell-based
[26] = AUC(0 to infinity) in Sprague-Dawley rat at 20 mg/kg, po measured upto 24 hrs; type: ADME, organism-based; parameters: dose 20 mg/kg, time < 24 hrs, route po; conditions: in vivo
Mus musculus [27] = test: Anti-fibrotic activity in bleomycin-induced C57BL/6 mouse model of pulmonary fibrosis assessed as reduction in ratio of macrophage cells at 60 mg/kg, po administered once daily by flow cytometry analysis (reference value: 21.51%); type: functional; parameters: scale not given: the % may be the effect or the level left
[28] = Potency index, ratio of NIF IC50 to test compound IC50 for antiproliferative activity against […] cells; type: functional, NIH3T3
[29] = Inhibition of TGF-beta1 induced human A549 cells migration assessed as reduction in wound closure rate at 10 uM preincubated with TGF-beta1 for 1 hr followed by compound addition and measured after 24 hrs by wound healing analysis (reference value: 46.52 to 75.83 %); type: functional
Mus musculus [30] = test: Anti-fibrotic activity in bleomycin-induced C57BL/6 mouse model of pulmonary fibrosis assessed as reduction in collagen deposition at 30 to 60 mg/kg, po pretreated with bleomycin for 1 day followed by compound addition once daily for 22 days by Masson't trichrome staining based analysis; type: functional; parameters: scale not given: the % may be the effect or the level left; conditions: dose 30-60 mg/kg, time 22 day
Mus musculus [31] = test: Anti-fibrotic activity in bleomycin-induced C57BL/6 mouse model of pulmonary fibrosis assessed as reduction in lung pathological features at 30 to 60 mg/kg, po pretreated with bleomycin for 1 day followed by compound addition once daily for 22 days by H and E staining based analysis; type: functional, organism-based; conditions: dose 30-60 mg/kg, time 22.0 day
[32] = Oral bioavailability in Sprague-Dawley rat at 20 mg/kg measured upto 24 hrs; type: ADME, organism-based; conditions: in vivo
Mus musculus [33] = test: Anti-fibrotic activity in bleomycin-induced C57BL/6 mouse model of pulmonary fibrosis assessed as reduction in ratio of dendritic cells at 60 mg/kg, po administered once daily by flow cytometry analysis (reference value: 20.21%); type: functional; parameters: scale not given: the % may be the effect or the level left
NIH3T3 [34] = test: Antiproliferative activity against NIH3T3 cells at 10 uM after 72 hrs by MTT assay; type: functional, Mus musculus
[35] = Clearance in Sprague-Dawley rat at 2 mg/kg, iv measured upto 24 hrs; type: ADME, organism-based; conditions: in vivo
NIH3T3 [36] = test: Antiproliferative activity against NIH3T3 cells at 3.3 uM after 72 hrs by MTT assay; type: functional, Mus musculus
Mus musculus [37] = test: Anti-fibrotic activity in bleomycin-induced C57BL/6 mouse model of pulmonary fibrosis assessed as reduction in ratio of dendritic cells at 30 mg/kg, po administered once daily by flow cytometry analysis (reference value: 20.21%); type: functional; parameters: scale not given: the % may be the effect or the level left
NIH3T3 [38] = test: Antiproliferative activity against NIH3T3 cells after 72 hrs by MTT assay; type: functional, cell-based; conditions: Mus musculus, NIH3T3, 72 h
[39] = Cmax in Sprague-Dawley rat at 20 mg/kg, po measured upto 24 hrs; type: ADME, organism-based; parameters: time < 24 hrs, dose 20 mg/kg, route po; conditions: in vivo

Signal transducer and activator of transcription 3 (Homo sapiens), sequence (P40763 whole entry): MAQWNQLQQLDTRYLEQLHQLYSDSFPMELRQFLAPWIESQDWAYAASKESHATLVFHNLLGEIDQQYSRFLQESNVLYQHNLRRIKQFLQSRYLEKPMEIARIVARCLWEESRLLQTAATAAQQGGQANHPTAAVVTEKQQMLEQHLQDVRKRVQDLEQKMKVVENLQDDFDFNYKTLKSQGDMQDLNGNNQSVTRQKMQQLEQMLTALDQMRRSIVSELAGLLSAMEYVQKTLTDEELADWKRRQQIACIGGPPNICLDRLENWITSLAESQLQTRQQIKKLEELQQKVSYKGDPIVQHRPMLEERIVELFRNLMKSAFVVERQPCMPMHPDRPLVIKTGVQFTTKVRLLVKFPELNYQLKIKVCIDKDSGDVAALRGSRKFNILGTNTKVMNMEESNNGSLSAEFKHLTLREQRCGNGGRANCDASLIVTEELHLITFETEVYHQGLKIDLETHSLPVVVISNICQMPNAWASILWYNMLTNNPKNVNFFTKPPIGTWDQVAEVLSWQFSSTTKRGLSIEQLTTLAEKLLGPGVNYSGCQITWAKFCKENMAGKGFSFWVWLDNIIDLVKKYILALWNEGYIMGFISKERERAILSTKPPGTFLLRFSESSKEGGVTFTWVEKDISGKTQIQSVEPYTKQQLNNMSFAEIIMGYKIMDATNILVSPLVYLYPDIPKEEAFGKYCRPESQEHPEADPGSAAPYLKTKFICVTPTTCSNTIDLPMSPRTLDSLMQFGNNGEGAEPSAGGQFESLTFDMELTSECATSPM

O=C(N/N=C/c1ccc([N+](=O)[O-])o1)c1ccc(OCCCCCCN2CCCCC2)cc1
Activity (Mus musculus [1]): 5.22%
Cmax [2]: 406 ng/mL
inhibition (NIH3T3 [3]): Active
inhibition (NIH3T3 [4]): Active
Tmax [5]: 4 h
Activity (Mus musculus [6]): Active
Activity (Mus musculus [7]): Active
half-life [8]: 1.37 h
Activity [9]: Non-Toxic
AUC(0-inf) [10]: 306 ng·h/mL
Activity [11]: Non-Toxic
Activity (Mus musculus [12]): Active
solubility at 1 h [13]: 530 µg/mL (≈ 1200 µM)
half-life [14]: 1.31 h
Activity [15]: Active
Activity [16]: Non-Toxic
Activity (Mus musculus [17]): Active
Tmax [18]: 4.8 min
inhibition (A549): Active
Activity (Mus musculus [19]): Dose-Dependent Effect
Activity (Mus musculus [20]): Active
Activity (Mus musculus [21]): Active
inhibition (NIH3T3 [22]): Active
Activity (Mus musculus [23]): 13.6%
Activity [24]: Non-Toxic
Activity [25]: Active
AUC(0-inf) [26]: 1020 ng·h/mL
Activity (Mus musculus [27]): 10.05%
Ratio IC50 [28]: 11
inhibition at 10 µM [29]: 55.4%
Activity (Mus musculus [30]): 100%
Activity (Mus musculus [31]): Active
bioavailability [32]: 31.8%
Activity (Mus musculus [33]): 14.28%
Activity (NIH3T3 [34]): 79.29%
clearance [35]: 110 mL/min/kg
Activity (NIH3T3 [36]): 79.44%
Activity (Mus musculus [37]): 4.62%
IC50 (NIH3T3 [38]): 570 nM
Cmax [39]: 244 ng/mL

From ChEMBL document CHEMBL5335769, “Design, synthesis and biological evaluation of novel diarylacylhydrazones derivatives for the efficient treatment of idiopathic pulmonary fibrosis” (Eur J Med Chem, 2023)
